Data taken from patent publication US8263590B2, “Pyrimidine derivatives” (priority 2003, dated 2012).
pIC50: −log10 of the molar value. Where two headings read alike, the source gives them in different places. Values belong to the compound of their own block, whether it stands above or below them.

Assays:
[1] = test system: Jurkat T human leukemic cell line; test: In vitro T cell migration assay; format: cell-based
Protocol: Inhibitory activities of FAK inhibitors on the mobility of immune cells are secured by the following in vitro study. […] Cell mobility is appraised through the number of cells migrated into lower chamber by labeling with calcein-AM (Molecular Probes, Netherlands) at 8 μg/ml in HBSS for 1 h.

FAK (Tyr397) = FAK (Tyr397) (Mus musculus, UniProt P34152); test: Phosphorylation levels of FAK at Tyr397 (sandwich ELISA, 4T1 cells)
Protocol: Phosphorylation levels of FAK at Tyr397 is quantified by the sandwich ELISA. Mouse mammary carcinoma 4T1 cells (1×10^5) are plated in wells of 96-well culture plates and incubated with or without various concentrations of inhibitors for 1 h in Dulbecco's modified eagle medium containing 0.5% BSA. The medium is removed and cells are lysed in 200 μL 50 mM Tris-HCl, pH 7.4, containing 1% NP-40, 0.25% sodium deoxycholate, 150 mM NaCl, 1 mM EDTA, 1 mM PMSF, 1 mM Na3VO4, 1 mM NaF, 1 μg/mL aprotinin, 1 μg/mL leupeptin and 1 μg/mL pepstatin. […] The concentration of compound causing 50% reduction of phosphorylation level of FAK is determined.

[2] = test system: Mouse mammary carcinoma 4T1 cells; test: Anchorage-independent tumor cell growth assay; format: cell-based
Protocol: Cells are cultured for 2 h and inhibitors are added at various concentrations in a final concentration of 0.1% DMSO. After 48 h, cell growth is assayed with the cell counting kit-8 (Wako Pure Chemical), which uses a water soluble tetrazolium salt WST8. Twenty μL of the reagent is added into each well and cells are further cultured for 2 h. The optical density is measured at 450 nm.

human FAK kinase domain = human FAK kinase domain (Homo sapiens, UniProt Q05397); test: FAK assay (FRET, Biot-Y397 peptide)
Protocol: All steps are performed in a 96-well black microtiter plate. […] The enzyme reaction is started by addition of 5 μL of 5 μM ATP in water and the mixture is incubated for 3 hours at 37° C. […] The results are shown as percent inhibition of enzyme activity. […] IC50 values are determined by non-linear curve fit analysis using the OriginPro 6.1 program (OriginLab).

human IGF-IR = target: T1, human IGF-IR (Homo sapiens, UniProt P08069); test: IGF-I induced IGF-IR autophosphorylation, cellular Capture ELISA; format: cell-based; settings: read-out: IGF-1R IC50
T1 construct: transfected with human IGF-IR cDNA (complete human IGF-IR cDNA); expressed in transfected cells; host or cells: NIH-3T3 mouse fibroblasts
Protocol: In this assay the activity of the compounds of the invention against Insulin-like growth factor I (IGF-I) induced autophosphorylation of the IGF-IR is determined.
The cells which overexpress human IGF-IR are cultured in Dulbecco's minimal essential (DMEM) medium, containing 10% Fetal Calf Serum (FCS). […] On day 3 the medium is discarded and the cells are incubated for 24 h in minimal medium (DMEM, containing 0.5% FCS).
The medium is discarded and the cells are washed twice with PBS/O (=Phosphate-Buffered Saline without CaCl2) and lysed for 15 min on ice with 50 μl/well RIPA-buffer [50 mM Tris.HCl, pH=7.2, 120 mM NaCl, 1 mM EDTA, 6 mM EGTA, 1% NP-40, 20 mM NaF, 1 mM benzamidine, 15 mM sodium pyrophosphate, 1 mM Phenyl methyl sulphonyl fluoride (PMSF) and 0.5 mM Na3VO4] and shaken for 10 min using a 96-well plate shaker (=cellular extracts).
The plates are washed twice with 0.05% (v/v) Tween-20 in Phosphate-Buffered Saline (PBS) and once with nanopure H2O. […] After blocking, the plates are washed once with nanopure H2O.
After incubating the extracts and the secondary antibody for 2 h at 4° C., the extracts are discarded, the plates are washed twice with 0.05% (v/v) Tween-20 in PBS and once with nanopure water.
90 μl/well AP substrate (CDP-Star; obtained from Tropix; Cat. No.: MS100RY) are then added and the plates are incubated for 45 min at RT in the dark, followed by measuring AP activity in a Packard Top Count Microplate Scintillation Counter. The IC50 values for the compounds of formula I are calculated via linear regression analysis using the GraphPad Instat program (GraphPad Software, USA).

Sequence of FAK (Tyr397) (P34152 whole entry): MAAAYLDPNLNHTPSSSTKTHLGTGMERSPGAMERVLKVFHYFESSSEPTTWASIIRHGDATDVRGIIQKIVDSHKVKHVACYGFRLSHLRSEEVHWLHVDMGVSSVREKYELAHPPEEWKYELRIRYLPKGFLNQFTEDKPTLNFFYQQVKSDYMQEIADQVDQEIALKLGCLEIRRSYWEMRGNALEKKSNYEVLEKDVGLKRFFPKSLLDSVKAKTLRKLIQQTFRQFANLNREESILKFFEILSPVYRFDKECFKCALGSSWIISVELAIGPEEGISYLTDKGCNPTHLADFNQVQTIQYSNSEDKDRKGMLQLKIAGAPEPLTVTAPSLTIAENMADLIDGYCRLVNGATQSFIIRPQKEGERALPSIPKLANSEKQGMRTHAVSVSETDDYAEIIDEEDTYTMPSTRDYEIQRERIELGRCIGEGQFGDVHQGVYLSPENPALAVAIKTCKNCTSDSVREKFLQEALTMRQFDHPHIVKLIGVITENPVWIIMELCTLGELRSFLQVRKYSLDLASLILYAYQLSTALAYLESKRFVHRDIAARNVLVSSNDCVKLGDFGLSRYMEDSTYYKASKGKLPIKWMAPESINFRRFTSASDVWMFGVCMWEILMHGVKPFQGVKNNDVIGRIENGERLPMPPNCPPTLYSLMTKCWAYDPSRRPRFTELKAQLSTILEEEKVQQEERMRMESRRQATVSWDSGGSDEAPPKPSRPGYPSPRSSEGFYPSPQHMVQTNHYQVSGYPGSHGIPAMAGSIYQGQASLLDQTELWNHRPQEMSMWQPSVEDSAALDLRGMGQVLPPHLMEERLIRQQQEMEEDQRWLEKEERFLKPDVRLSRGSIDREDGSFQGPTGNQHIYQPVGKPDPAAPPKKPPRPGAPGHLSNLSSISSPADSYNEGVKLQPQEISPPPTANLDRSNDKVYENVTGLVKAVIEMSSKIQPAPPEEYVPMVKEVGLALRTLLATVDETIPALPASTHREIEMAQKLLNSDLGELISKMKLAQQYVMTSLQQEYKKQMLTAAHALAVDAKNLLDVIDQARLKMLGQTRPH
T1 sequence (P08069 31-1367): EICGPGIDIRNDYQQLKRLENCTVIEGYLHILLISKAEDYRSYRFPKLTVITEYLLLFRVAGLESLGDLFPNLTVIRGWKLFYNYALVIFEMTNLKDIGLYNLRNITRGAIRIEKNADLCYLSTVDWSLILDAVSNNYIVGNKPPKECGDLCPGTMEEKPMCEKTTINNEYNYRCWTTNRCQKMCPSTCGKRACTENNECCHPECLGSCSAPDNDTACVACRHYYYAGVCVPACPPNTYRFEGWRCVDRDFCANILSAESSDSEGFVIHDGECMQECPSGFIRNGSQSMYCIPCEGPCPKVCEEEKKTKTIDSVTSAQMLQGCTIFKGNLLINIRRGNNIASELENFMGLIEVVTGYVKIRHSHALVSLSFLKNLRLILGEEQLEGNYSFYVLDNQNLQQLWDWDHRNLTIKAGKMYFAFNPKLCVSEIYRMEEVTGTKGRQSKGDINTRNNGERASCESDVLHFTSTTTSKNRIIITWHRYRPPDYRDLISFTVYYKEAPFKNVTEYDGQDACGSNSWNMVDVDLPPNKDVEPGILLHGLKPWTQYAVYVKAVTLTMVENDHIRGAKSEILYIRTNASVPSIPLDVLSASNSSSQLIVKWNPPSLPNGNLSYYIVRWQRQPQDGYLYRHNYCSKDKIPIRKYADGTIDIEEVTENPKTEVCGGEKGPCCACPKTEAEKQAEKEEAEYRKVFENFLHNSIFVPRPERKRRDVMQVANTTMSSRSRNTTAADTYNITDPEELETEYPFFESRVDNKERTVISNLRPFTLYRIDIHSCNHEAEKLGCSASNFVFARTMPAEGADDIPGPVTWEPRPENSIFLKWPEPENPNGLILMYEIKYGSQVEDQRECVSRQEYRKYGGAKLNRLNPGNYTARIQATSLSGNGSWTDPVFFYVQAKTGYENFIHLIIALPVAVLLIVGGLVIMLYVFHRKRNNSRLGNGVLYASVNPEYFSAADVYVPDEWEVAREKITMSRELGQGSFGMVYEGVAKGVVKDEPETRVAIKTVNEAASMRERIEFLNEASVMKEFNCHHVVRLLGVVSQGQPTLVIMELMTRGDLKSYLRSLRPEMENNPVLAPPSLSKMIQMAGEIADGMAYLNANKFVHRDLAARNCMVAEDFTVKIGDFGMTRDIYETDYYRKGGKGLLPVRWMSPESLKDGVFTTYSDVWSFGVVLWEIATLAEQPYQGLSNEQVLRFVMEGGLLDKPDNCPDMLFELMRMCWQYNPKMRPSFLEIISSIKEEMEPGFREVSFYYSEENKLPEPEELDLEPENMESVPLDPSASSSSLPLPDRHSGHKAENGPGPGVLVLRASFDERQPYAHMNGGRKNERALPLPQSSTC
Sequence of human FAK kinase domain (Q05397 384-706): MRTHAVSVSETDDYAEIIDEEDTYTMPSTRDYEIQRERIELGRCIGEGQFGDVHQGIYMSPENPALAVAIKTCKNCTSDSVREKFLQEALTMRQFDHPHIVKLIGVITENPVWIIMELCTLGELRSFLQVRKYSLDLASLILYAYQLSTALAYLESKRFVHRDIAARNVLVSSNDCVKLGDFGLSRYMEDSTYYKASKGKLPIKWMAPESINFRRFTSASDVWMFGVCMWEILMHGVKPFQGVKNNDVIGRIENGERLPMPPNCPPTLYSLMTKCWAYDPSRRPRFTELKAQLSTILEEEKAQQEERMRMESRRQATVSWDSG

SMILES: CNC(=O)c1ccccc1Nc1nc(Nc2cc(N3CCN(C(C)=O)CC3)ccc2OC)ncc1Cl [Example 7-30]
pIC50 [1]: 6.00

SMILES: CC(C)NS(=O)(=O)c1ccccc1Nc1nc(Nc2ccc(OC3CCN(C)CC3)cc2F)ncc1Cl [Example 19-28]
pIC50 [1]: 6.52

SMILES: CNS(=O)(=O)c1ccccc1Nc1nc(Nc2ccc(OC3CCN(C)C3)cc2OC)ncc1Br (stereo not shown) [Example 3-82]
pIC50 (FAK (Tyr397)): 6.70 | pIC50 ([2]; Mus musculus, 4T1): 7.15 | pIC50 (human FAK kinase domain): 8.32

SMILES: CNS(=O)(=O)c1ccccc1Nc1nc(Nc2ccc(N3CCC(N4CCCCC4)CC3)cc2OC)ncc1Cl [Example 20-8]
pIC50 (FAK (Tyr397)): 6.77 | pIC50 [1]: 6.54 | pIC50 ([2]; Mus musculus, 4T1): 7.30 | pIC50 (human FAK kinase domain): 8.17

SMILES: CCNC(=O)c1ccccc1Nc1nc(Nc2ccc(OC3CCN(C)CC3)cc2OC)ncc1Cl [Example 9-6]
pIC50 [1]: 6.52

SMILES: COc1cc(N2CCN(C)CC2)ccc1Nc1ncc(Cl)c(Nc2ccccc2S(=O)(=O)NC(C)C)n1 [Example 19-5]
pIC50 [1]: 7.15 | pIC50 ([2]; Mus musculus, 4T1): 6.17 | pIC50 (human IGF-IR): 6.33

SMILES: CNS(=O)(=O)c1ccccc1Nc1nc(Nc2ccc(N3CCOCC3)cc2OC)ncc1Cl [Example 20-1]
pIC50 [1]: 6.60

SMILES: CNS(=O)(=O)c1ccccc1Nc1nc(Nc2ccc(OC3CCN(C)CC3)cc2OC)ncc1Br [Example 3-33]
pIC50 [1]: 7.05

SMILES: CNC(=O)c1ccccc1Nc1nc(Nc2cc(N3CCOCC3)ccc2OC)ncc1Cl [Example 7-6]
pIC50 [1]: 6.60

SMILES: CNS(=O)(=O)c1ccccc1Nc1nc(Nc2cccc3c2CCCC3)ncc1Br [Example 3-31]
pIC50 [2]: 5.30

SMILES: CNC(=O)c1ccccc1Nc1nc(Nc2ccc(N3CCC(NC)C3)cc2OC)ncc1Cl (stereo not shown) [Example 7-12]
pIC50 [1]: 6.51

SMILES: CCNC(=O)c1ccccc1Nc1nc(Nc2ccc(N3CCOCC3)cc2OC)ncc1Cl [Example 9-1]
pIC50 [1]: 6.22

SMILES: COc1cc(N2CCOCC2)ccc1Nc1ncc(Cl)c(Nc2ccccc2C(=O)NC(C)C)n1 [Example 14-2]
pIC50 [1]: 6.00

SMILES: CNS(=O)(=O)c1ccccc1Nc1nc(Nc2cc(N(C)C)ccc2OC)ncc1Br [Example 3-64]
pIC50 [1]: 6.68

SMILES: CNS(=O)(=O)c1ccccc1Nc1nc(Nc2cc(OCCN3CCOCC3)ccc2OC)ncc1Br [Example 3-35]
pIC50 [1]: 6.10

SMILES: CCNC(=O)c1ccccc1Nc1nc(Nc2ccc(N3CCC(N4CCCCC4)CC3)cc2OC)ncc1Cl [Example 9-3]
pIC50 (FAK (Tyr397)): 7.00 | pIC50 ([2]; Mus musculus, 4T1): 6.43 | pIC50 (human FAK kinase domain): 7.74

SMILES: COc1cc(N2CCC(N(C)C)C2)ccc1Nc1ncc(Cl)c(Nc2ccccc2S(=O)(=O)NC(C)C)n1 (stereo not shown) [Example 19-9]
pIC50 [1]: 6.52

SMILES: COc1cc(N2CCOCC2)ccc1Nc1ncc(Cl)c(Nc2ccccc2S(=O)(=O)NC(C)C)n1 [Example 19-8]
pIC50 [1]: 6.54

SMILES: CNS(=O)(=O)c1ccccc1Nc1nc(Nc2ccc(OC3CCN(C)C3)cc2OC)ncc1Cl (stereo not shown) [Example 20-29]
pIC50 (FAK (Tyr397)): 6.70 | pIC50 ([2]; Mus musculus, 4T1): 7.30 | pIC50 (human FAK kinase domain): 8.21 | pIC50 (human IGF-IR): 6.51

SMILES: CNS(=O)(=O)c1ccccc1Nc1nc(Nc2ccc(N3CCCC(C(N)=O)C3)cc2OC)ncc1Br (stereo not shown) [Example 3-68]
pIC50 [1]: 6.00

SMILES: CNC(=O)c1ccccc1Nc1nc(Nc2ccc(N3CCOCC3)cc2OC)ncc1Cl [Example 7A, 2-[5-Chloro-2-(2-methoxy-4-morpholin-4-yl-phenylamino)-pyrimidin-4-ylamino]-N-methyl-benzamide]
pIC50 [1]: 7.40

SMILES: CCN1CCN(c2ccc(Nc3ncc(Cl)c(Nc4ccccc4S(=O)(=O)C(C)C)n3)c(OC)c2)CC1 [Example 28-12]
pIC50 [2]: 6.37

SMILES: CNS(=O)(=O)c1ccccc1Nc1nc(Nc2ccc(N3CCN(C(C)=O)CC3)cc2OC)ncc1Br [Example 3-46]
pIC50 [1]: 6.52

SMILES: CNS(=O)(=O)c1ccccc1Nc1nc(Nc2cc(N3CCOCC3)ccc2OC)ncc1Br [Example 3-32]
pIC50 [1]: 6.55

SMILES: CNC1CCN(c2ccc(Nc3ncc(Cl)c(Nc4ccccc4S(=O)(=O)NC(C)C)n3)c(OC)c2)C1 (stereo not shown) [Example 19-1]
pIC50 [1]: 6.54

SMILES: CNS(=O)(=O)c1ccccc1Nc1nc(Nc2ccc(N3CCN(C)CC3)cc2OC)ncc1Br [Example 3-39]
pIC50 [1]: 6.00

SMILES: CNS(=O)(=O)c1ccccc1Nc1nc(Nc2ccc(-n3ccnc3C)cc2OC)ncc1Br [Example 3-83]
pIC50 [2]: 6.49

SMILES: COc1cc(N2CCOCC2)ccc1Nc1ncc(Cl)c(Nc2cccc3c2C(=O)N(C)C3)n1 [Example 12-1, 7-[5-Chloro-2-(2-methoxy-4-morpholin-4-yl-phenylamino)-pyrimidin-4-ylamino]-2-methyl-2,3-dihydro-isoindol-1-one]
pIC50 [1]: 6.66

SMILES: CNS(=O)(=O)c1ccccc1Nc1nc(Nc2cc(N3CCC(N4CCCCC4)CC3)ccc2OC)ncc1Br [Example 3-69]
pIC50 [1]: 6.24

SMILES: CNS(=O)(=O)c1ccccc1Nc1nc(Nc2cc(N3CCN(C(C)=O)CC3)ccc2OC)ncc1Br [Example 3-34]
pIC50 [1]: 6.89

SMILES: CNC(=O)c1cc(N2CCCC2)ccc1Nc1nc(Nc2ccc(N3CCOCC3)cc2OC)ncc1Cl [Example 15-3]
pIC50 (FAK (Tyr397)): 5.70 | pIC50 ([2]; Mus musculus, 4T1): 5.78 | pIC50 (human FAK kinase domain): 7.36

SMILES: CNS(=O)(=O)c1ccccc1Nc1nc(Nc2ccc(N3CCN(C(C)=O)CC3)cc2OC)ncc1Cl [Example 20-2]
pIC50 [1]: 6.12

SMILES: CNC(=O)c1ccccc1Nc1nc(Nc2cc(F)ccc2OC)ncc1Br [Example 8-3]
pIC50 [2]: 6.00

SMILES: CNS(=O)(=O)c1ccccc1Nc1nc(Nc2cc(OC3CCN(C)CC3)ccc2OC)ncc1Br [Example 3-76]
pIC50 [1]: 6.15

SMILES: COc1cc(N2CCOCC2)ccc1Nc1ncc(Cl)c(Nc2ccccc2C(=O)N(C)C)n1 [Example 14-1]
pIC50 [1]: 6.55

SMILES: CNS(=O)(=O)c1ccccc1Nc1nc(Nc2ccc(N3CCN(C)CC3)cc2OC)ncc1Cl [Example 20-6]
pIC50 [1]: 4.31

Second part, the compound after the results:

pIC50 [2]: 7.05
SMILES: CCCS(=O)(=O)c1ccccc1Nc1nc(Nc2ccc(N3CCN(C(C)C)CC3)cc2OC)ncc1Cl [Example 26-23]

pIC50 [1]: 7.05
SMILES: CCCS(=O)(=O)c1ccccc1Nc1nc(Nc2ccc(N3CCN(C(C)=O)CC3)cc2OC)ncc1Cl [Example 26-2]

pIC50 (FAK (Tyr397)): 6.85 | pIC50 (human FAK kinase domain): 8.00 | pIC50 (human IGF-IR): 6.31
SMILES: CCCS(=O)(=O)c1ccccc1Nc1nc(Nc2ccc(C(=O)N3CCOCC3)cc2OC)ncc1Cl [Example 26-20]

pIC50 [1]: 6.54
SMILES: CCCS(=O)(=O)c1ccccc1Nc1nc(Nc2ccc(N3CCC(O)CC3)cc2OC)ncc1Cl [Example 26-4]

pIC50 [1]: 6.30
SMILES: COc1cc(N2CCC[C@H](C(N)=O)C2)ccc1Nc1ncc(Cl)c(Nc2ccccc2S(=O)(=O)C(C)C)n1 [Example 28-27]

pIC50 (FAK (Tyr397)): 6.30 | pIC50 ([2]; Mus musculus, 4T1): 6.85 | pIC50 (human FAK kinase domain): 8.43
SMILES: COc1cc(OC2CCN(C)CC2)ccc1Nc1ncc(Cl)c(Nc2ccccc2S(=O)(=O)C(C)C)n1 [Example 28-19]

pIC50 [2]: 6.25
SMILES: Cc1cc(N2CCOCC2)ccc1Nc1ncc(Cl)c(Nc2ccccc2S(=O)(=O)C(C)C)n1 [Example 28-6]

pIC50 [1]: 6.20
SMILES: CCC(CC)NS(=O)(=O)c1ccccc1Nc1nc(Nc2ccc(OC3CCN(C)CC3)cc2OC)ncc1Cl [Example 23-1]

pIC50 [2]: 5.97
SMILES: CC(C)S(=O)(=O)c1ccccc1Nc1nc(Nc2cccc3c2OCC3)ncc1Cl [Example 28-31]

pIC50 [1]: 6.54
SMILES: COc1cc(N2CCC(N3CCOCC3)CC2)ccc1Nc1ncc(Cl)c(Nc2ccccc2S(=O)(=O)C(C)C)n1 [Example 28-13]

pIC50 ([2]; Mus musculus, 4T1): 6.72 | pIC50 (human IGF-IR): 6.33
SMILES: CCC(C)NS(=O)(=O)c1ccccc1Nc1nc(Nc2ccc(N3CCN(C)CC3)cc2OC)ncc1Cl (stereo not shown) [Example 21-1]

pIC50 (FAK (Tyr397)): 5.52 | pIC50 ([2]; Mus musculus, 4T1): 6.08 | pIC50 (human FAK kinase domain): 8.68
SMILES: CCC(CC)NS(=O)(=O)c1ccccc1Nc1nc(Nc2ccc(OC3CCN(C)C3)cc2OC)ncc1Cl (stereo not shown) [Example 23-7]

pIC50 [1]: 6.00
SMILES: COc1cc(N2CCC[C@@H](C(N)=O)C2)ccc1Nc1ncc(Cl)c(Nc2ccccc2S(=O)(=O)C(C)C)n1 [Example 28-28]

pIC50 [1]: 6.30
SMILES: CCCS(=O)(=O)c1ccccc1Nc1nc(Nc2ccc(N3CCN(C(C)=O)C(C)(C)C3)cc2OC)ncc1Cl [Example 26-11]

pIC50 [1]: 6.22
SMILES: COc1cc(N2CCC(O)CC2)ccc1Nc1ncc(Cl)c(Nc2ccccc2S(=O)(=O)C(C)C)n1 [Example 28-16]

pIC50 [1]: 6.59
SMILES: CCCS(=O)(=O)c1ccccc1Nc1nc(Nc2cc(N3CCOCC3)ccc2OC)ncc1Cl [Example 26-17]
